Like-named read-outs stand apart in the source and are kept apart here.
What was measured:
[1] = molecular target: T1, T. cruzi glucokinase (TcGlcK) (Trypanosoma cruzi, UniProt Q4E4E1); experiment: Two-enzyme coupled colorimetric glucokinase activity assay (G6PDH/NADPH), TcGlcK; type: biochemical; conditions: for Glucokinase selectivity ratio = Ki (HsGlcK)/Ki (TcGlcK): higher values indicate better selectivity toward TcGlcK
T1 construct: precedes the start methionine and the 9-residue segment VGKKQKAQL at the C-terminal region was not included; made in house; host or cells: E. coli BL21(DE3)
Method: (§1) Enzymatic activity of glucokinase from T. cruzi and H. sapiens were both performed using a similar protocol but had minor modifications. In general, a two-enzyme coupled colorimetric assay was performed, as previously described (4). The assay is based on the formation of NADPH (λmax≈340 nm; ϵ340=6,220 M^−1 cm^−1) (5). In the 1st step of the assay, glucokinase/hexokinase in the presence of Mg^2+, ATP, and D-glucose react to form glucose-6-phosphate (G-6-P) and ADP. In the 2nd step, glucose-6-phosphate dehydrogenase (G6PDH) in the presence of the formed G-6-P and NADP^+ react to form 6-phosphogluconolactone and NADPH. All measurements were performed in triplicate at 22° C.
TcGlcK assays used purified enzyme (0.12 μM for the monomer (0.0051 mg/mL)) that was used in the reaction mixtures, which were carried out with S. cerevisiae G6PDH (0.0064 mg/mL) in an assay buffer [50 mM triethanolamine (pH 7.6), 7.95 mM MgCl2, 0.55 mM ATP, 0.55 mM NADP^+] contained substrate ([D-glucose] ranged from 0.2-15.0 mM) and inhibitor ([BENZ-GlcN] ranged from 0-20 μM; [CBZ-GlcN] ranged from 0-10 μM; [HPOP-GlcN] ranged from 0-10 μM; and [DBT-GlcN] ranged from 0-20 μM). Reactions were performed at room temperature (22° C.) and were terminated after 120 sec (optimal time) using 90 μL of 1.5 M EDTA (pH 8.0). The EDTA solution was prepared from the tetrasodium salt. For quantification of NADPH, UV-visible spectrophotometric absorbance readings were recorded at 338 nm (λ) with an Agilent 8453 UV-visible spectrophotometer exactly 1 min after solutions were treated with the EDTA solution. Concentration of NADPH was determined through Beer's Law using the molar absorptivity of 6,220 M^−1 cm^−1.

[2] = tested on: T. cruzi (Tulahuen strain) intracellular amastigote parasite cells; experiment: T. cruzi in-vitro growth inhibition assay, amastigotes co-cultured in NIH/3T3 fibroblasts; type: cell-based; conditions: Trypanosoma cruzi, NIH3T3, co-cultured within NIH/3T3 fibroblast cells, triplicate
Method: T. cruzi (Tulahuen strain) intracellular amastigote parasite cells co-cultured within NIH/3T3 mammalian fibroblast cells were tested for in-vitro growth inhibition from each of Samples 1-4. […] Samples 1, 3, and 4 had IC50 values>40 μM. The methods used for producing cultures of T. cruzi cells and mammalian cells in addition to the methods of performing T. cruzi in-vitro inhibition assays were previously described by Andriani and colleagues (20). All biological experimentation was carried out at the Anti-Infectives Screening Core Service Center at New York University School of Medicine, Department of Microbiology.

[3] = molecular target: T2, Homo sapiens glucokinase (hexokinase IV) (HsGlcK) (Homo sapiens, UniProt P35557); experiment: Two-enzyme coupled colorimetric glucokinase activity assay (G6PDH/NADPH), HsGlcK; type: biochemical; conditions: measurements in triplicate, 22° C., substrate D-glucose, compounds tested as racemic mixtures (n ≥ 2), read-out: Ki versus substrate, HsGlcK
T2 construct: precedes residue K12 (N-terminal segment M1-A11 of HsGlcK was not included); made in house; host or cells: E. coli BL21(DE3)
T2 sequence (P35557 12-457 limits assumed): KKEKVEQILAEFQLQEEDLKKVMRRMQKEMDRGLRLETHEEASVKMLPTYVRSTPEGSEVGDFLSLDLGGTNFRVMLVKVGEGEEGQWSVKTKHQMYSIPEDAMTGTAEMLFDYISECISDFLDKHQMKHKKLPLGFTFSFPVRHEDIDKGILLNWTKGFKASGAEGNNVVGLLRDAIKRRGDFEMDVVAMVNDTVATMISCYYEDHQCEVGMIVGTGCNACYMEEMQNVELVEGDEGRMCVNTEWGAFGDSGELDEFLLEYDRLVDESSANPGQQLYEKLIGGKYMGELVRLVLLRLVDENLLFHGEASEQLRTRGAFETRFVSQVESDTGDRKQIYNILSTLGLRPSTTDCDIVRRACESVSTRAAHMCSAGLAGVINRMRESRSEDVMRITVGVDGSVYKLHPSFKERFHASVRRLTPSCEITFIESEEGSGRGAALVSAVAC
Method: as §1
HsGlcK assays were performed at room temperature and used the same protocol implemented for TcGlcK (see above) except that the reactions were terminated after 600 sec (optimum time) with 90 μL of 1.5 M EDTA (pH 8.0) and the reaction mixtures had slight modification. Briefly, DTT, which reduces disulfide bonds was added to the stock solution aliquot of HsGlcK on the day of the experiment (e.g. 1.0 μL of 20 mM DTT was mixed with 99.0 μL of 1.0 mg/mL HsGlcK) and was allowed to pre-equilibrate at 4° C. for 30 min prior to running assay reactions. Purified HsGlcK (0.15 μM for the monomer or 0.0077 mg/mL) and S. cerevisiae G6PDH (0.0064 mg/mL) in an assay buffer [50 mM triethanolamine (pH 7.6), 7.95 mM MgCl2, 5.0 mM ATP, 0.55 mM […], 1.0% (v/v) DMSO, 1.0 mM DTT, 5.0 mM KCl] contained substrate ([D-glucose] ranged from 5.0-50.0 mM) and inhibitor ([BENZ-GlcN] ranged from 0-500 μM; [CBZ-GlcN] ranged from 0-500 μM; and [HPOP-GlcN] ranged from 0-500 μM). DBT-GlcN was not used in the inhibition enzymatic assays because this compound absorbs light at the wavelength of NADPH (338 nm) at the concentrations needed for any reasonable inhibition of HsGlcK.

[4] = colorimetric assay, measurements in triplicate, 22° C., substrate D-glucose, compounds tested as racemic mixtures (n ≥ 2), read-out: Ki versus substrate, TcGlcK

T1 sequence (Q4E4E1 entry or part of it): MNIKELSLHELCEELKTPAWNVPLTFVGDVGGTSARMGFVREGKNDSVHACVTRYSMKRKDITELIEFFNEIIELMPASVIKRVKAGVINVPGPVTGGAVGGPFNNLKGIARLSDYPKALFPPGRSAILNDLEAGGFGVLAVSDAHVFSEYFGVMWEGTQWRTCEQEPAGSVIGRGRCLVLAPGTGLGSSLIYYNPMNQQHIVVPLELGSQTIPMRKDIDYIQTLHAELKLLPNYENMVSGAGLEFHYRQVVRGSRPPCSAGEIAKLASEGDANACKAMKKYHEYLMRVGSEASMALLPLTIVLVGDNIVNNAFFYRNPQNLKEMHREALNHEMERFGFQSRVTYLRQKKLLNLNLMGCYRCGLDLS

With `O=C(N[C@H]1C(O)O[C@H](CO)[C@@H](O)[C@@H]1O)OCC1=Cc2ccccc2S1(=O)=O` (mixture of isomers) [DBT-GlcN, 2-[[1,1-dioxobenzo[b]thiophen-2-yl]methyloxocarbonylamino]-2-deoxy-D-glucosamine] the Ki [1, 4] was 4.1 ± 0.3 µM and the IC50 [2] was > 40 µM.
`O=C(CCc1ccc(O)cc1)N[C@H]1C(O)O[C@H](CO)[C@@H](O)[C@@H]1O` (mixture of isomers) [HPOP-GlcN, 2-[[3-(4-hydroxyphenyl)-1-oxopropyl]amino]-2-deoxy-D-glucosamine] was tested, and the Ki [1] was 1.3 ± 0.6 µM, the “Glucokinase selectivity ratio = Ki (HsGlcK)/Ki (TcGlcK)” value (from here on “Glucokinase selectivity ratio = Ki”) [1] was 186 and the Ki [3] was 242 ± 97 µM. The IC50 [2] was > 40 µM.
In the case of `O=C(N[C@H]1C(O)O[C@H](CO)[C@@H](O)[C@@H]1O)OCc1ccccc1` (mixture of isomers) [CBZ-GlcN, 2-N-carboxybenzyl-2-deoxy-D-glucosamine], the Ki [1] is reported as 0.71 ± 0.05 µM, the “Glucokinase selectivity ratio = Ki” value [1] is reported as 245 and the Ki [3] is reported as 174 ± 50 µM. For the same molecule, the IC50 [2] was > 40 µM.
For `O=C(N[C@H]1C(O)O[C@H](CO)[C@@H](O)[C@@H]1O)c1ccccc1` (stereo partly drawn) [BENZ-GlcN, 2-benzamido-2-deoxy-D-glucopyranose], the Ki [1, 4] was 32 ± 26 µM, the “Glucokinase selectivity ratio = Ki” value [1] was 12 and the Ki [3] was 376 ± 196 µM. The IC50 [2] was 16.08 ± 0.16 µM.

— patent US9956240B2, “Therapeutic monosaccharide-based inhibitors of hexokinase and glucokinase for parasitic diseases, along with methods of their formation and use” (University of South Carolina, priority 2014, dated 2018)
